Results on 22 compounds are retold here after patent publication US7919508B2, “3-piperidinylisochroman-5-ols as dopamine agonists” (Aventis Pharmaceuticals Inc., priority 2004, dated 2011).

Experiment [1] deals with T1, human dopamine D1 receptor (Homo sapiens, UniProt P21728).
T1 construct: A 1.4 Kb Hind III to Xho I fragment was subcloned into the vector pMMLV; expressed in transfected cells; host or cells: CHO cells, clone CHO-D1M#9 (plasmid pHD1MMLV), membranes
The experiment in a line: [3H]-SCH-23390 binding to cloned human dopamine D1 receptors (CHO cell membranes). As to conditions: competitive binding, [3H]-SCH-23390, cloned human D1 in CHO membranes; read-out: D1 affinity Ki. As to the method: [^3H]-SCH-23390 Binding to Cloned Human Dopamine D1 Receptors
Determination of relative binding affinity of potential neuropsychiatric and other agents for the human dopamine D1 receptor.
The human D, cDNA was obtained from the laboratory of Dr. Marc Caron in the vector pCMV5. A 1.4 Kb Hind III to Xho I fragment was subcloned into the vector pMMLV. The plasmid pHD1MMLV was then sequenced completely. Transient transfections in COS-7 cells were performed and D1 specific binding was obtained. The construct pHD1MMLV was then transfected stably into CHO cells and 72 G418-resistant clones were isolated. High expressors were identified by mRNA dot blot analysis. Six high expressors were further characterized by binding and then clone CHO-D1M#9 was chosen for detailed pharmacological characterization. This clone was then grown in suspension culture for the purpose of obtaining enough protein to accommodate several months of screening.
B. Cell Culture Conditions
• 1. […] Cells are transferred to suspension culture when at least […] are available (this allows for 300,000 cells/ml in a 50 ml spinner flask; this is the ideal suspension density). Cells are removed from flasks with trypsin, spun down at 1000×G and resuspended the pellet in fresh medium: • 50% CHO-SFM-II+50% Ham's F12 w/10% FBS (final FBS conc. 5%)+400 μg/ml G418+1% P/S. • 3. After the transfer to suspension culture, growth is monitored and cell viability is assessed using trypan blue exclusion. Total and viable cell count on 5 sectors of the hemocytometer are recorded. When the viable cell density reaches 600,000 cell/ml, the volume is doubled. • 4. After 1 week of growth in the 50/50 medium, the cells are spun down and transferred to a new spinner flask and replaced with 75% CHO-SFM II/25% Ham's F12+10% FBS plus the pen-strep and G418. Thereafter every 3 days, the medium is replaced with new medium containing a decreasing amount of FBS as follows:
• 5. The final maintenance culturing medium is made up as follows: • A stock mixture of 10 ml of pen-strep, 0.5 ml of […] (active; final concentration: 200 μg/ml) G418 and 1 ml of FBS are mixed and filtered and refrigerated. A volume (11.5 ml) of this mixture is added to a freshly opened 1 L bottle of CHO-SFM II. C. Membrane Preparation
Cells are harvested into 250 ml centrifuge tubes and spun down at 1200×G. The medium is removed and 100 ml PBS (phosphate-buffered saline) is added to each centrifuge tube; cells are resuspended and spun down again. The PBS is removed and the final pellet is homogenized with a polytron on ice at a medium setting.
The membrane suspension is diluted in water and samples (10, 50 and 100 μl; q.s. to 100 μl with water) are diluted with 100 μl of 1% SDS. The sample is vortexed and allowed to stand for 5 min. Two aliquots each of the solubilized protein sample are placed in clean 13×100 test tubes for the assay. Instructions are followed as outlined in the BioRad DC protein determination kit (Catalog # 500-0112). OD readings that fall between 0.1-0.5 (mid-range of standard curve) should typically be used for calculations. Protein concentrations are calculated from a standard curve using bovine serum albumin as standard by linear regression and interpolation.
Following cell harvesting and protein determination, the homogenate is diluted with 10% DMSO to the correct volume based on Bmax and relative size of individual experiments to be conducted. The concentrated protein is stored in cryogenic vials in aliquots of 1-1.5 ml. Samples may be stored in −80° C. freezer or in liquid nitrogen.

For experiment [2], the target named is human dopamine D2Long (D2L) receptors (Homo sapiens, UniProt P14416).
Experimental: [N-Methyl-^3H]Spiroperidol Binding to Cloned Human Dopamine D2Long Receptors
This assay measures the in vitro activity of drugs on cloned human dopamine D2Long (D2L) receptors and predicts the direct dopamine-displacing properties of neuropsychiatric, cardiovascular and renal agents at human dopamine D2 receptors.
Cells were maintained in Ham's F12+10% Fetal Bovine Serum+Penicillin/Streptomycin (100 U/ml/100 μg/ml)+G418 (400 μg/ml) medium and were split using Trypsin-EDTA (1 ml/plate, room temperature for ˜2 min. or until cells have lifted off plates). • 2. […] Plates are incubated at 37° C.+5% CO2 for ˜3 days or until cells were confluent.
Cells are harvested by mechanical scraping, washed using PBS collected in 250 ml Corning polypropylene centrifuge tubes, spun down and resuspended in dH2O (final volume per harvest approximately 60 ml). Protein determination is made according to the method of Lowry (Biorad DC Assay Kit). Following the determination of the protein concentration, the protein is diluted into distilled water with 10% DMSO to the appropriate volume based on expression levels (Bmax). The concentrated protein is aliquoted into 1.5 ml screw top eppendorf tubes and placed into a −80° C. freezer.
Assay Requirement: 1 cryovial per two 96 well plates
0.5M Tris Wash Buffer, pH 7.7 • a) 44.4 g Tris HCl • 26.5 g Tris Base • q.s. to 1 Liter (0.5 M Tris buffer, pH 7.7 at 37° C.) • b) make a 1:10 dilution in distilled H2O (0.05 M. Tris buffer, pH 7.7) • 2. Tris Buffer containing physiological salts • a) Stock buffer • NaCl 7.014 g • KCl 0.372 g • CaCl2 0.222 g • MgCl2 0.204 g • q.s. To 100 ml with 0.5 M. Tris Buffer • b) Dilute 1:10 in distilled H2O • This yields 0.05 M. Tris HCl, pH 7.7, containing NaCl (120 mM), KCl (5 mM), CaCl2 (2 mM) and MgCl2 (1 mM) • Optional: add 0.1% ascorbic acid and check pH (in assays with compounds that may oxidize. • c) 1.0% polyethyleneimine stock in 0.5M Tris (reagent 1.a) • Dilute 1:10 in distilled H2O Binding Assay • 750 μl Tissue • 150 μl [^3H]NMSP • 100 μl vehicle (for total binding) or 30 μM (−)
eticlopride (for nonspecific binding) or appropriate drug concentration.
The 96-Well Packard Unifilters GF/B are incubated for >1 h at 25° C. in 0.1% polyethylenimine. The cold tissue is added last and mixed on a orbital shaker for a few seconds and is then incubated at 37° C. for 30 min in a shaking water bath. The assay is stopped by rapid filtration through Packard Unifilter plates. The filter membranes are then washed with 15 ml of ice-cold 0.05 M Tris buffer. The filters are then dried (˜15 min. under a heat lamp or incubated for 15 min. in a 60° C. oven) and a bottom seal is applied. Then 40 μl of Packard Microscint 20 scintillation cocktail are added and a permanent topseal (Type P) is applied and heat sealed. The plates are placed in a Packard Topcount.
Specific binding is defined as the difference between total binding and the binding in the presence of 3 μM S-(−)-eticlopride. Total binding is approximately 10% of the total added ligand. […] The percent inhibition at each drug concentration is the mean of duplicate determinations.

Where a name gives a salt, the structure may show the parent alone.

T1 sequence (P21728 whole entry, the tested form may be a part): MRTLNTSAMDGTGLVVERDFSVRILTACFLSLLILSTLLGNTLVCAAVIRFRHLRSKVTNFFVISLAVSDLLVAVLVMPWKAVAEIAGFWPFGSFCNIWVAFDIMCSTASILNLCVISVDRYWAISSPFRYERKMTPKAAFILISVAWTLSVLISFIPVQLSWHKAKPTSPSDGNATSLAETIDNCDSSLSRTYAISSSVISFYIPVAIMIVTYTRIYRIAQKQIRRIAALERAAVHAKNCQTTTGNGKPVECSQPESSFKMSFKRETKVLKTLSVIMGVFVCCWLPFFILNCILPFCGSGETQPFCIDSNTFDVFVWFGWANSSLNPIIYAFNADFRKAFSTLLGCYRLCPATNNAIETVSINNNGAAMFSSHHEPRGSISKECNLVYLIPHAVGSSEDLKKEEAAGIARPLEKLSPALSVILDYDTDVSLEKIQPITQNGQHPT
Chain of human dopamine D2Long (D2L) receptors (P14416 whole entry): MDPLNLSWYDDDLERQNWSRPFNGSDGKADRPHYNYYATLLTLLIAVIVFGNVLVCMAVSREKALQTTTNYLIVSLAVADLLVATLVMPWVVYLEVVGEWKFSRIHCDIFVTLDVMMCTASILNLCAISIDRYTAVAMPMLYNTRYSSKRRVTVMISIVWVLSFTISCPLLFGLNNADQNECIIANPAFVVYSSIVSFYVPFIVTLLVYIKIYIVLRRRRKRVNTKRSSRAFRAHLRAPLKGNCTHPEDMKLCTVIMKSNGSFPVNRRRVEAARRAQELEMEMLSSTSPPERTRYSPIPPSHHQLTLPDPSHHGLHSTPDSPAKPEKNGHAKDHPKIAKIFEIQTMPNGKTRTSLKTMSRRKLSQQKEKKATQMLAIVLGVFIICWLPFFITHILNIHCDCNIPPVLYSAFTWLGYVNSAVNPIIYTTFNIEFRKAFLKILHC

Regarding `CCC(NC(=O)c1ccc(C)cc1)C(C)CN1CCC([C@@H]2Cc3c(ccc(C)c3O)[C@H](CN)O2)CC1` (stereo partly drawn) [Example 14, N-{3-[4-((1R,3S)-1-Aminomethyl-5-hydroxy-6-methyl-isochroman-3-yl)-piperidin-1-yl]-1-ethyl-2-methyl-propyl}-4-methyl-benzamide dihydrochloride], the inhibition constant (Ki) is 274 nM in experiment [1] and ≥ 100000 nM in experiment [2]. The like results for `Cc1ccc2c(c1O)C[C@@H](C1CCN(CCC(C)NC(=O)c3ccc(-c4ccccc4)cc3)CC1)O[C@H]2CN` (stereo partly drawn) [Example 18, Biphenyl-4-carboxylic acid {3-[4-((1R,3S)-1-aminomethyl-5-hydroxy-6-methyl-isochroman-3-yl)-piperidin-1-yl]-1-methyl-propyl}-amide dihydrochloride] were, in that order, 244 nM and 389 nM.

In the case of `Cc1ccc2c(c1O)C[C@@H](C1CCN(CCC(C)NC(=O)c3ccc([N+](=O)[O-])cc3)CC1)O[C@H]2CN` (stereo partly drawn) [Example 24, N-{3-[4-((1R,3S)-1-Aminomethyl-5-hydroxy-6-methyl-isochroman-3-yl)-piperidin-1-yl]-1-methyl-propyl}-4-nitro-benzamide dihydrochloride], the inhibition constant Ki is 240 nM in experiment [1] and 638 nM in experiment [2].

For the compound `Cc1ccc2c(c1O)C[C@@H](C1CCN(CC(C)C)CC1)O[C@H]2CN` [Example 40, (1R,3S)-1-Aminomethyl-3-(1-isobutyl-piperidin-4-yl)-6-methyl-isochroman-5-ol dihydrochloride], the results for the Ki in experiment [1] and in experiment [2] were 361 nM and ≥ 10000 nM, respectively. For the compound `Cc1ccc2c(c1O)C[C@@H](C1CCN(CC(C)(C)C)CC1)O[C@H]2CN` [Example 42, (1R,3S)-1-Aminomethyl-3-[1-(2,2-dimethyl-propyl)-piperidin-4-yl]-6-methyl-isochroman-5-ol dihydrochloride], the results for the Ki in experiment [1] and in experiment [2] were 398 nM and ≥ 10000 nM, respectively. For the compound `Cc1ccc2c(c1O)C[C@@H](C1CCN(Cc3ccc(F)cc3F)CC1)O[C@H]2CN` [Example 50, (1R,3S)-1-Aminomethyl-3-[1-(2,4-difluoro-benzyl)-piperidin-4-yl]-6-methyl-isochroman-5-ol dihydrochloride], the figures for the inhibition constant Ki in experiment [1] and in experiment [2] were 47.3 nM and 367 nM, respectively. With `Cc1ccc2c(c1O)C[C@@H](C1CCN(C(C)c3ccccc3)CC1)O[C@H]2CN` (stereo partly drawn) [Example 51, (1R,3S)-1-Aminomethyl-6-methyl-3-[1-(1-phenyl-ethyl)-piperidin-4-yl]-isochroman-5-ol dihydrochloride], in experiment [1], the Ki turned out to be 156 nM.

For the compound `Cc1ccc2c(c1O)C[C@@H](C1CCN(Cc3ccccn3)CC1)O[C@H]2CN` [Example 52, (1R,3S)-1-Aminomethyl-6-methyl-3-(1-pyridin-2-ylmethyl-piperidin-4-yl)-isochroman-5-ol dihydrochloride], the results for the inhibitory constant (Ki) in experiment [1] and in experiment [2] were 113 nM and ≥ 10000 nM, respectively. The like results for `Cc1ccccc1CN1CCC([C@@H]2Cc3c(ccc(C)c3O)[C@H](CN)O2)CC1` [Example 64, (1R,3S)-1-Aminomethyl-6-methyl-3-[1-(2-methyl-benzyl)-piperidin-4-yl]-isochroman-5-ol dihydrochloride] were, in that order, 198 nM and 576 nM. The like results for `COc1ccccc1CN1CCC([C@@H]2Cc3c(ccc(C)c3O)[C@H](CN)O2)CC1` [Example 68, (1R,3S)-1-Aminomethyl-3-[1-(2-methoxy-benzyl)-piperidin-4-yl]-6-methyl-isochroman-5-ol dihydrochloride] were, in that order, 96.7 nM and 232 nM.

With `Cc1ccc2c(c1O)C[C@@H](C1CCN(Cc3ccccc3C(F)(F)F)CC1)O[C@H]2CN` [Example 72, (1R,3S)-1-Aminomethyl-6-methyl-3-[1-(2-trifluoromethyl-benzyl)-piperidin-4-yl]-isochroman-5-ol dihydrochloride], the inhibition constant (Ki) stood at 159 nM in experiment [1] and 266 nM in experiment [2].

Regarding `Cc1ccc2c(c1O)C[C@@H](C1CCN(Cc3cccc(C(F)(F)F)c3Cl)CC1)O[C@H]2CN` [Example 79, (1R,3S)-1-Aminomethyl-3-[1-(2-chloro-3-trifluoromethyl-benzyl)-piperidin-4-yl]-6-methyl-isochroman-5-ol dihydrochloride], the Ki in experiment [1] turned out to be 81 nM; in experiment [2], 310 nM. `Cc1ccc2c(c1O)C[C@@H](C1CCN(Cc3cccc(C(F)(F)F)c3F)CC1)O[C@H]2CN` [Example 80, (1R,3S)-1-Aminomethyl-3-[1-(2-fluoro-3-trifluoromethyl-benzyl)-piperidin-4-yl]-6-methyl-isochroman-5-ol dihydrochloride]: the inhibition constant Ki in experiment [1] amounted to 48.7 nM; in experiment [2], 565 nM. In the same order, the values of `Cc1ccc2c(c1O)C[C@@H](C1CCN(Cc3cc(C(F)(F)F)ccc3F)CC1)O[C@H]2CN` [Example 81, (1R,3S)-1-Aminomethyl-3-[1-(2-fluoro-5-trifluoromethyl-benzyl)-piperidin-4-yl]-6-methyl-isochroman-5-ol dihydrochloride] are 28.7 nM and 343 nM. For the compound `Cc1ccc2c(c1O)C[C@@H](C1CCN(Cc3ccc(C(F)(F)F)c(F)c3)CC1)O[C@H]2CN` [Example 82, (1R,3S)-1-Aminomethyl-3-[1-(3-fluoro-4-trifluoromethyl-benzyl)-piperidin-4-yl]-6-methyl-isochroman-5-ol dihydrochloride], the inhibition constant Ki in experiment [1] was 15.6 nM; in experiment [2] it was ≥ 10000 nM.

As to `Cc1ccc2c(c1O)C[C@@H](C1CCN(Cc3ccc(F)c(C(F)(F)F)c3)CC1)O[C@H]2CN` [Example 83, (1R,3S)-1-Aminomethyl-3-[1-(4-fluoro-3-trifluoromethyl-benzyl)-piperidin-4-yl]-6-methyl-isochroman-5-ol dihydrochloride], the figures for the Ki in experiment [1] and in experiment [2] were 15.9 nM and 611 nM, respectively.

Regarding `Cc1ccc2c(c1O)C[C@@H](C1CCN(C(=O)N(c3ccccc3)c3ccccc3)CC1)O[C@H]2CN` [Example 130, 4-((1R,3S)-1-Aminomethyl-5-hydroxy-6-methyl-isochroman-3-yl)-piperidine-1-carboxylic acid diphenylamide hydrochloride], the Ki in experiment [1] was found to be 156 nM. Still for that read-out and setting: with `CCCN(C)C[C@@H]1O[C@H](C2CCN(Cc3ccc(C(F)(F)F)cc3)CC2)Cc2c1ccc(C)c2O` [Example 184, (1R,3S)-6-Methyl-1-[(methyl-propyl-amino)-methyl]-3-[1-(4-trifluoromethyl-benzyl)-piperidin-4-yl]-isochroman-5-ol] the figure was 110 nM; with `C=CCN(CC=C)C[C@@H]1O[C@H](C2CCN(Cc3ccc(C(F)(F)F)cc3)CC2)Cc2c1ccc(C)c2O` [Example 185, (1R,3S)-1-Diallylaminomethyl-6-methyl-3-[1-(4-trifluoromethyl-benzyl)-piperidin-4-yl]-isochroman-5-ol], 3100 nM. Still for that read-out and setting: as for `C=CCNC[C@@H]1O[C@H](C2CCN(Cc3ccccc3)CC2)Cc2c1ccc(C)c2O` [Example 186, (1R,3S)-1-Allylaminomethyl-3-(1-benzyl-piperidin-4-yl)-6-methyl-isochroman-5-ol], the figure is 1910 nM; as for `C=CCN(CC=C)C[C@@H]1O[C@H](C2CCN(Cc3ccccc3)CC2)Cc2c1ccc(C)c2O` [Example 187, (1R,3S)-3-(1-Benzyl-piperidin-4-yl)-1-diallylaminomethyl-6-methyl-isochroman-5-ol], 2640 nM. As to `Cc1ccc2c(c1O)C[C@@H](C1CCN(C(C(=O)O)c3ccccc3)CC1)O[C@H]2CN` (stereo partly drawn) [Example 195, [4-((1R,3S)-1-Aminomethyl-5-hydroxy-6-methyl-isochroman-3-yl)-piperidin-1-yl]-phenylacetic acid dihydrobromide], the Ki in experiment [1] worked out at 1700 nM.
